In patent publication US10933053B2, “Treating infections with ceftolozane/tazobactam in subjects having impaired renal function” (MERCK SHARP & DOHME CORP., priority 2013, dated 2021):

Assay: clinical
Conditions: both, human, in vivo; for Vd: Vss
Experimental: This was a Phase 1, multicenter, prospective, open-label study of 750 mg ceftolozane/tazobactam (as CXA-201) administered IV in male and female adult subjects with severe renal impairment (estimated CLCR<30 mL/min) and subjects with end-stage renal disease (ESRD) on hemodialysis (HD). The primary objective of the study was to determine the PK profile of ceftolozane/tazobactam in subjects with severe renal impairment and subjects with ESRD on HD and to determine the effect of HD on the clearance of ceftolozane/tazobactam.
Subjects with severe renal impairment received a single IV 1-hour infusion of 750 mg ceftolozane/tazobactam on Day 1. […] Subjects in this cohort received an IV dose of 750 mg ceftolozane/tazobactam as a 1 hour infusion immediately after their first HD session on Day 1 (post dialysis, approximately 72 hours prior to the next HD session) and a second dose of ceftolozane/tazobactam approximately 2 hours before their second HD session on Day 4 of the study. Infusion of ceftolozane/tazobactam was completed approximately 1 hour before the start of HD.
Subjects in both cohorts had urine (if not anuric) and plasma samples collected for determination of levels of ceftolozane, tazobactam and the M1 metabolite of tazobactam; subjects in the ESRD on HD cohort also had dialysate fluid samples collected for PK assessment. Plasma, urine, and dialysate levels of ceftolozane, tazobactam, and its metabolite M1 collected over a prespecified interval were determined by LC/MS/MS assay.
All subjects underwent hemodialysis for 3 to 4 hours using a high-flux membrane (either 1.4, 1.8, or 1.9 m^2) on Days 1, 4, and 6 as scheduled. Average blood flow rate was 264 to 600 mL/min and average dialysis flow rate was either 600 or 800 mL/min for all subjects with ESRD.
All cohorts received ceftolozane/tazobactam as an intravenous infusion over 1 h. The normal, mild, and moderate renal impairment cohorts received a single dose of ceftolozane/tazobactam 1,000 mg/500 mg; the severe renal impairment cohort received a single dose of ceftolozane/tazobactam 500 mg/250 mg; the ESRD cohort received a dose of ceftolozane/tazobactam 500 mg/250 mg initiated at the end of HD on day 1 and another dose initiated 2 h before HD on day 4. Subjects with ESRD underwent HD for 3 to 4 h using a high-flux membrane as scheduled; average dialysis flow rate was 600 to 800 ml/min. Revaclear hemodialyzers (Gambro, Stockholm, Sweden) were used in 5 subjects (ultrafiltration coefficient 50 to 60 ml/h/mmHg, high flux membrane of 1.4 to 1.8 m^2) and a CT 190G hemodialyzers (Baxter Healthcare, McGaw Park, Ill.) was used in 1 subject (ultrafiltration coefficient 36 ml/h/mmHg, high flux membrane of 1.9 m^2). The average blood flow rate was 400 to 600 ml/min with the exception of one subject with rates between 264 and 400 ml/min.
Plasma concentrations of ceftolozane and tazobactam were measured prior to, during, and following administration of ceftolozane/tazobactam. Blood samples were collected 30 min prior to administration, at the end of administration and at 5, 15, and 30 min and 1, 2, 3, 5, 7, 9, 11, 15, 25, and 35 h after completion of ceftolozane/tazobactam administration in the normal, mild, and moderate renal impairment cohorts. Severe renal impairment and ESRD cohorts off HD had samples taken 30 min prior to administration and at 0.5, 1, 1.5, 2, 3, 6, 9, 12, 24, 36, and 48 h after the start of administration. On the day of and following HD, the subjects with ESRD had samples taken 30 min prior to administration and at 0.5, 1, 1.5, 2, 3, 4, 5, 6, 9, 12, 24, 36, and 44 h after the start of the administration. The entire dialysate was collected at each of the following intervals: 0 to 1, 1 to 2, 2 to 3, and 3 h to the end of dialysis. Urine for PK analysis was obtained in the normal, mild, and moderate cohorts at 0 to 2, 2 to 4, 4 to 8, 8 to 12, 12 to 24, and 24 to 36 h after the start of ceftolozane/tazobactam administration.

Compound | AUC [ng·h/mL] | AUC48h Ratio (Day 3:1), median (range) | CLss | Change in Concentration | Clast | Clast lower than Cmax | Concentration after HD | Concentration before HD | Half-Life, median (range) | Percent Removed | Percent Removed, median (range) | average extraction ratio during HD [%] | median Cmax higher vs normal renal function, dose normalized [fold] | rebound peak plasma concentration after HD, of the original Cmax | reduction in overall exposure | AUC(0-inf) (AUC0-∞) [µg·h/mL] | AUC(0-inf) (AUC0-∞, median (range)) [µg·h/mL] | clearance (CL, median (range)) [mL/min] | Cmax [ng/mL] | Cmax (median (range)) [ng/mL] | other results
C[C@]1(Cn2ccnn2)[C@H](C(=O)O)N2C(=O)C[C@H]2S1(=O)=O [Tazobactam, tazobactam] | 26400 | 0.44 (0.26-0.53) | 8.53 (5.53-15.9) L/hr | 10.5 (3.6-17.6) | 0.46 (0.13-1.14) μg/mL | ~32 fold | 0.5 (0.1-1.1) μg/mL | 10.8 (3.9-18.7) μg/mL | 5.0 (1.9-8.5) hr | 95.3 (83.8-98.6) % | 56 (47-74) | 53 | 2.4 | ~6% | ~56% | 29.4 | 109 | 40 | 14900 | 20200 | Tmax: 1.00 (1.00-1.00) hr; Tmax, median (range): 1.0 (1.0-1.0) hr; median dialysis clearance (CLD): 4.39 (1.36-6.29) L/hr; removed by dialysis: ~56%; t1/2 during the HD period (median): 54.6 min; half-life (Half-Life, median (range)): 253 min; Vd: 10.4 L; Vd (median (range)): 15.2 L
Cn1c(N)c(NC(=O)NCCN)c[n+]1CC1=C(C(=O)O)N2C(=O)[C@@H](NC(=O)/C(=N\OC(C)(C)C(=O)O)c3nsc(N)n3)[C@H]2SC1 [Ceftolozane, (6R,7R)-3-[(5-amino-4-{[(2-aminoethyl)carbamoyl]amino}-1-methyl-1H-pyrazol-2-ium-2-yl)methyl]-7-({(2Z)-2-(5-amino-1,2,4-thiadiazol-3-yl)-2-[(1-carboxy-1-methylethoxy)imino]acetyl}amino)-8-oxo-5-thia-1-azabicyclo[4.2.0]oct-2-ene-2-carboxylate] | 87000 | 0.34 (0.26-0.48) | 5.01 (4.11-10.7) L/hr | 32.3 (10.2-44.8) | 2.88 (1.23-4.48) μg/mL | approximately 14 fold | 2.9 (1.2-4.5) μg/mL | 34.4 (13.2-49.3) μg/mL | 43.2 h | 91.5 (72.3-96.3) % | 66 (52-74) | 46 | 1.2 | approximately 17% | approximately 66% | 99.8 | 1630 | 5 | 41100 | 44200 | Cmax, mean (CV %): 40.9 (35) μg/mL; tmax, median (minimum, maximum): 1.0 (1.0, 1.0) h; AUC(0-t) (AUC0-t): 97100 ng·h/mL; AUC(0-inf) (AUC∞, mean (CV %)): 1680 µg·h/mL; clearance (CL, mean (CV %)): 6.67 mL/min; half-life (Half-Life): 67.8 min; half-life (Half-Life, median (range)): 2430 min; Vd: 7.26 L; Vd (mean (CV %)): 19.2 L; Vd (median (range)): 17.9 L; clearance (median dialysis clearance (CLD)): 95.8 mL/min; half-life (t1/2 during the HD period (median)): 67.8 min
